PMC10967822, “Antimicrobial Indole-3-Carboxamido-Polyamine Conjugates Target Bacterial Membranes and Are Antibiotic Potentiators” (Biomolecules, 2024)
In brackets after ≈: the same amount, converted by molar mass.

Experiments:
S. aureus ATCC 25923 = assay: MIC, broth dilution, S. aureus; assay type: cell-based, Staphylococcus aureus; conditions: Staphylococcus aureus, ATCC25923; S. aureus ATCC 25923, 18 h; read-out: MIC Sa
MRSA ATCC 43300 = assay: MIC, broth microdilution (CO-ADD), MRSA; assay type: cell-based, methicillin-resistant S. aureus; conditions: Staphylococcus aureus; MRSA ATCC 43300; top dose 32 µg/mL; read-out: MIC MRSA
P. aeruginosa ATCC 27853 [1] = assay: MIC, broth dilution, P. aeruginosa; assay type: cell-based, Pseudomonas aeruginosa; conditions: Pseudomonas aeruginosa, ATCC27853; P. aeruginosa ATCC 27853, 18 h; read-out: MIC Pa
E. coli ATCC 25922 [2] = assay: MIC, broth dilution, E. coli; assay type: cell-based, Escherichia coli; conditions: Escherichia coli, ATCC25922; E. coli ATCC 25922, 18 h
A. baumannii ATCC 19606 = assay: MIC, broth microdilution (CO-ADD), A. baumannii; assay type: cell-based, Acinetobacter baumannii; conditions: Acinetobacter baumannii, ATCC19606, top dose 32 µg/mL
C. albicans ATCC 90028 = assay: Antifungal MIC (CO-ADD), C. albicans; assay type: cell-based; conditions: Candida albicans, ATCC90028, top dose 32 µg/mL
Experimental: (§1) For the antifungal assay, fungi strains were cultured for 3 days on YPD agar at 30 °C. A yeast suspension of 1 × 10^6 to 5 × 10^6 CFU/mL was prepared from five colonies. These stock suspensions were diluted with a yeast nitrogen base (YNB) (Becton Dickinson, 233520, New South Wales, Australia) broth to a final concentration of 2.5 × 10^3 CFU/mL. […] The plates were covered and incubated at 35 °C for 36 h without shaking. C. albicans MICs were determined by measuring the absorbance at OD530. For C. neoformans, resazurin was added at a 0.006% final concentration to each well and incubated for a further 3 h before the MICs were determined by measuring the absorbance at OD570–600. […] Fluconazole was used as a positive fungal inhibitor standard for C. albicans and C. neoformans. […] The quality control (QC) of the assays was determined by the antimicrobial controls and the Z′-factor (using positive and negative controls).

[3] = test system: C. neoformans ATCC 208821; assay: Antifungal MIC (CO-ADD), C. neoformans; assay type: cell-based; conditions: Cryptococcus neoformans, ATCC208821, top dose 32 µg/mL
Experimental: as §1

P. aeruginosa ATCC 27853 [4] = assay: Doxycycline potentiation against P. aeruginosa; assay type: cell-based, Pseudomonas aeruginosa; conditions: doxycycline at 2 µg/mL (4.5 µM); for Dox/Pa fold-change (intrinsic MIC / combination MIC): P. aeruginosa ATCC 27853; for Dox/Pa: concentration required to restore doxycycline activity (combination MIC): P. aeruginosa ATCC 27853, mean n = 3
Source text: (§2) These measurements were independently repeated in triplicate.

E. coli ATCC 25922 [5] = assay: Erythromycin potentiation against E. coli; assay type: cell-based, Escherichia coli; conditions: erythromycin at 2 µg/mL (2.7 µM); for Erythro/Ec fold-change (intrinsic MIC / combination MIC): E. coli; for Erythro/Ec: concentration required to restore erythromycin activity (combination MIC): mean n = 3
Source text: as §2

[6] = Cytotoxicity assay (resazurin); assay type: cell-based; conditions: human, HEK293 cells, mean n = 2
human red blood cells = assay: Hemolytic assay; assay type: cell-based; conditions: 10% hemolytic activity, mean n = 2
Experimental: Human whole blood was washed three times with three volumes of 0.9% NaCl and then resuspended in the same solution to a concentration of 0.5 × 10^8 cells/mL, as determined by the manual cell count in a Neubauer hemocytometer. The washed cells were then added to the 384-well compound-containing plates for a final volume of 50 μL. After a 10 min shake on a plate shaker, the plates were then incubated for 1 h at 37 °C. After incubation, the plates were centrifuged at 1000× g for 10 min to pellet cells and debris; 25 μL of the supernatant was then transferred to a polystyrene 384-well assay plate. Hemolysis was determined by measuring the supernatant absorbance at […] (OD405). The absorbance was measured using a Tecan M1000 Pro monochromator plate reader. HC10 and HC50 (concentrations at 10% and 50% hemolysis, respectively) were calculated by a curve fitting the inhibition values vs. log (concentration) using a sigmoidal dose–response function with variable fitting values for the top, bottom, and slope.

[7] = test system: K. pneumoniae ATCC 700603; assay: MIC, broth microdilution (CO-ADD), K. pneumoniae; conditions: top dose 32 µg/mL

SMILES | MIC (S. aureus ATCC 25923) [µM] | MIC (MRSA ATCC 43300) [µM] | MIC (P. aeruginosa ATCC 27853 [1]) [µM] | MIC (E. coli ATCC 25922 [2]) [µM] | MIC (A. baumannii ATCC 19606) [µM] | MIC (C. albicans ATCC 90028) [µM] | MIC [3] [µM] | Dox/Pa fold-change (intrinsic MIC / combination MIC) (P. aeruginosa ATCC 27853 [4]) [fold] | Dox/Pa: concentration required to restore doxycycline activity (combination MIC) (P. aeruginosa ATCC 27853 [4]) [µM] | Erythro/Ec fold-change (intrinsic MIC / combination MIC) (E. coli ATCC 25922 [5]) [fold] | Erythro/Ec: concentration required to restore erythromycin activity (combination MIC) (E. coli ATCC 25922 [5]) [µM] | MIC Kp [7] [µM] | IC50 at 20 h [6] [µM] | Hemolysis HC10 (human red blood cells) [µM]
O=C(NCCCNCCCCCCNCCCNC(=O)c1c[nH]c2ccccc12)c1c[nH]c2ccccc12.O=C(O)C(F)(F)F.O=C(O)C(F)(F)F [Compound 12b] | 268 | ≤ 0.34 | > 268 | 134 | > 43 | > 43 | ≤ 0.34 | > 8 | 33.6 | 4 | 33.6 | >43 | > 43 | >43
O=C(NCCCNCCCCCCCCCCNCCCNC(=O)c1c[nH]c2ccccc12)c1c[nH]c2ccccc12.O=C(O)C(F)(F)F.O=C(O)C(F)(F)F [Compound 12e] | 31.2 | ≤ 0.31 | > 250 | 125 | > 40 | > 40 | ≤ 0.31 | > 4 | 62.4 | 2 | 62.4 | >40 | > 40 | >40
O=C(NCCCNCCCCCCCNCCCNC(=O)c1c[nH]c2ccc(Br)cc12)c1c[nH]c2ccc(Br)cc12 [Compound 13c] | 13.6 (≈ 9.36 µg/mL) | ≤ 0.27 | 220 (≈ 151 µg/mL) | 110 (≈ 75.7 µg/mL) | > 35 | 35 (≈ 24.1 µg/mL) | ≤ 0.27 | 16 | 13.6 | 16 | 6.82 | >35 | > 35 | >35
O=C(NCCCNCCCCCCCCCCCCNCCCNC(=O)c1c[nH]c2ccc(Br)cc12)c1c[nH]c2ccc(Br)cc12.O=C(O)C(F)(F)F.O=C(O)C(F)(F)F [Compound 13f] | 3.17 | ≤ 0.25 | 203 | > 203 | 2.03 | ≤ 0.25 | ≤ 0.25 | 4 | 50.7 | > 8 | 25.3 | ≤0.25 | ≤ 0.25 | 14.2
COc1ccc2[nH]cc(C(=O)NCCCNCCCCCCCCNCCCNC(=O)c3c[nH]c4ccc(OC)cc34)c2c1 [Compound 14d] | 60 (≈ 36.3 µg/mL) | 19.2 (≈ 11.6 µg/mL) | > 240 | 120 (≈ 72.6 µg/mL) | > 38 | > 38 | ≤ 0.3 | > 8 | 30.0 | 0.5 | 240 | >38 | > 38 | >38

More lines, in order of falling MIC (S. aureus ATCC 25923), values ahead:

MIC (S. aureus ATCC 25923) [µM] | MIC (MRSA ATCC 43300) [µM] | MIC (P. aeruginosa ATCC 27853 [1]) [µM] | MIC (E. coli ATCC 25922 [2]) [µM] | MIC (A. baumannii ATCC 19606) [µM] | MIC (C. albicans ATCC 90028) [µM] | MIC [3] [µM] | Dox/Pa fold-change (intrinsic MIC / combination MIC) (P. aeruginosa ATCC 27853 [4]) [fold] | Dox/Pa: concentration required to restore doxycycline activity (combination MIC) (P. aeruginosa ATCC 27853 [4]) [µM] | Erythro/Ec fold-change (intrinsic MIC / combination MIC) (E. coli ATCC 25922 [5]) [fold] | Erythro/Ec: concentration required to restore erythromycin activity (combination MIC) (E. coli ATCC 25922 [5]) [µM] | MIC Kp [7] [µM] | SMILES | IC50 at 20 h [6] [µM] | Hemolysis HC10 (human red blood cells) [µM]
248 (≈ 143 µg/mL) | ≤ 0.31 | > 248 | 248 (≈ 143 µg/mL) | > 40 | > 40 | ≤ 0.31 | > 8 | 31.1 | 4 | 62.1 | >40 | COc1ccc2[nH]cc(C(=O)NCCCNCCCCCCNCCCNC(=O)c3c[nH]c4ccc(OC)cc34)c2c1 [Compound 14b] | > 40 | >40
132 | ≤ 0.33 | > 263 | 65.9 | > 42 | > 42 | ≤ 0.33 | > 4 | 65.9 | 1 | 65.9 | >42 | O=C(NCCCNCCCCCCCNCCCNC(=O)c1c[nH]c2ccccc12)c1c[nH]c2ccccc12.O=C(O)C(F)(F)F.O=C(O)C(F)(F)F [Compound 12c] | > 42 | >42
29 | ≤ 0.29 | 232 | 58.1 | > 37 | > 37 | ≤ 0.29 | 8 | 29.0 | 0.5 | 116 | >37 | COc1ccc2[nH]cc(C(=O)NCCCNCCCCCCCCCCNCCCNC(=O)c3c[nH]c4ccc(OC)cc34)c2c1.O=C(O)C(F)(F)F.O=C(O)C(F)(F)F [Compound 14e] | > 37 | >37
3.77 | ≤ 0.3 | 121 | 15.1 | 4.82 | ≤ 0.3 | ≤ 0.3 | 8 | 15.1 | 2 | 7.54 | >39 | O=C(NCCCNCCCCCCCCCCCCNCCCNC(=O)c1c[nH]c2ccccc12)c1c[nH]c2ccccc12.O=C(O)C(F)(F)F.O=C(O)C(F)(F)F [Compound 12f] | > 39 | >39
3.36 (≈ 2.36 µg/mL) | ≤ 0.27 | 107 (≈ 75.2 µg/mL) | 53.7 (≈ 37.7 µg/mL) | ≤ 0.27 | ≤ 0.27 | ≤ 0.27 | 8 | 13.4 | 8 | 6.72 | >34 | O=C(NCCCNCCCCCCCCNCCCNC(=O)c1c[nH]c2ccc(Br)cc12)c1c[nH]c2ccc(Br)cc12 [Compound 13d] | > 34 | >34
3.26 (≈ 2.38 µg/mL) | ≤ 0.26 | 104 (≈ 76 µg/mL) | 52.2 (≈ 38.1 µg/mL) | 16.7 (≈ 12.2 µg/mL) | 4.17 (≈ 3.05 µg/mL) | ≤ 0.26 | 4 | 26.1 | 8 | 6.52 | >34 | O=C(NCCCNCCCCCCCCCCNCCCNC(=O)c1c[nH]c2ccc(Br)cc12)c1c[nH]c2ccc(Br)cc12 [Compound 13e] | > 33 | >33
